The experiment deals with T1, cannabinoid receptor 2 (CB2R) (Homo sapiens, UniProt P34972).
T1 construct: gene CNR2; SNAP-tagged human CB2R in HEK-293T cells
As to the kind of experiment: HTRF competition binding against […] fluorophore-conjugated CM157 in HEK-293T cells; also cAMP and β-arrestin II recruitment. It counts as cell-based.

For orientation: Ki means a measure of affinity in units of concentration, obtained from inhibition or displacement. Lower therefore signals a stronger hold on the target.

SMILES strings stand for the structures.

T1 sequence (P34972 whole entry): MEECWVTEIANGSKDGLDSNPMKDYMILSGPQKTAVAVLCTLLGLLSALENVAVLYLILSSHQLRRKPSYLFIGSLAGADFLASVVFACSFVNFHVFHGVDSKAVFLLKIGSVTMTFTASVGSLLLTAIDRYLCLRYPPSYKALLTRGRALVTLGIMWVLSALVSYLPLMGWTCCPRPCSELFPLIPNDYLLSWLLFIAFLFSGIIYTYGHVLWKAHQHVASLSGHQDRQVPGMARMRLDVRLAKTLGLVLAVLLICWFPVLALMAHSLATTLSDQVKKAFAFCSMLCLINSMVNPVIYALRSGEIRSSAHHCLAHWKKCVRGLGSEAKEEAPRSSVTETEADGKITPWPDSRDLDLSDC

In the case of `CCCC(C)(C)c1ccc2c(c1)OC(C)(C)[C@@H]1CC=C(C)C[C@@H]21` [JWH-133], affinity was put at a Ki of 0.018 µM.

The record behind these values is PMC12524789, “The Interplay Between CB2 and NMDA Receptors in Parkinson’s Disease” (International Journal of Molecular Sciences, 2025).
